# Data reported in patent US9255093B2, “Polycyclic HERG activators” (NOVARTIS AG, priority 2014, dated 2016).
# Marks after values point to notes of the source that are not given here.
# Biological target: T1, hERG (human ether-a-go-go-related gene) potassium channel (Homo sapiens, UniProt Q12809)
# Assay: not given
# Conditions: not given
# T1 sequence (Q12809 whole entry): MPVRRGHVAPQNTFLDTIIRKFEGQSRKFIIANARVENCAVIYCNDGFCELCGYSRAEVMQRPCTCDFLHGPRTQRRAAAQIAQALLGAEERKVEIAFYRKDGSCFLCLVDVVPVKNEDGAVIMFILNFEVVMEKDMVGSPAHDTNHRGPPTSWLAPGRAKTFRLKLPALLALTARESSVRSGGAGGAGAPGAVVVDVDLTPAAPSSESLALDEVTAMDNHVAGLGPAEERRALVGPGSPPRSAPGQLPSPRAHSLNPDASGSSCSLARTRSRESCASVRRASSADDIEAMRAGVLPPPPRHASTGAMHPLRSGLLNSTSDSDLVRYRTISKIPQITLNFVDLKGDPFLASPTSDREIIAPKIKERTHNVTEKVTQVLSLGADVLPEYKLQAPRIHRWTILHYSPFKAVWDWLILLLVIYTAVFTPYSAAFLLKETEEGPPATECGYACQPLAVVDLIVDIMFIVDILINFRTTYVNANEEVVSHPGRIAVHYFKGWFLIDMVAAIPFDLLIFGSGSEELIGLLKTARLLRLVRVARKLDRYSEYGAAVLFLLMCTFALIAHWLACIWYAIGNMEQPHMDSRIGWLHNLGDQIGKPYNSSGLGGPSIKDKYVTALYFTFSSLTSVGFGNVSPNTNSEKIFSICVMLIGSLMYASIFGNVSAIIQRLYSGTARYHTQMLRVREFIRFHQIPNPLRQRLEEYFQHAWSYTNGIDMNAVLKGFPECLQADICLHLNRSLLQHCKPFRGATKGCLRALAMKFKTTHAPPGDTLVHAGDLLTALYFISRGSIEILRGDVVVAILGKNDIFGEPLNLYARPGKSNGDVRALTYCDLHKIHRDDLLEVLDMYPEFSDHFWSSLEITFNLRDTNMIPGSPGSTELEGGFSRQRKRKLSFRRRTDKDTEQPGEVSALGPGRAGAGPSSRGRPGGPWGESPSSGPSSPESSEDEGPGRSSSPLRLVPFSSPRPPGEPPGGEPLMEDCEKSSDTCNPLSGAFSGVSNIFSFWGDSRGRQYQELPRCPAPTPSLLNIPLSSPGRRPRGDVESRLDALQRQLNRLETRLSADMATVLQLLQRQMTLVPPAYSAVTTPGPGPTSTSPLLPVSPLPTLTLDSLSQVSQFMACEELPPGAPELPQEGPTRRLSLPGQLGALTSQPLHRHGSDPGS
row,Structure (SMILES),% change@TL7@10 uM
1,O=c1cc(C(F)(F)F)c2ccc(NCc3ccc4cc(-c5nn[nH]n5)oc4c3)cc2o1 [Example 222],41%

# Biological target: T1, hERG (human ether-a-go-go-related gene) potassium channel
# Assay: QPatch automated patch-clamp hERG activator 4-concentration EC50 assay
# Conditions: increase of hERG tail current amplitude at 7 second (TL7); 3.3 uM (footnote *); hERG stably expressed in CHO cells
# Excerpt: A patch-clamp assay on the QPatch© automated patch clamp system was employed to assesses whether compounds functionally enhance the cardiac delayed rectifier hERG (human ether-a-go-go-related gene) potassium channel. The assay measures electric the current passing through hERG channels that are heterologously expressed in a stable Chinese hamster ovary (CHO) cell line. Channels are opened by a hERG-specific voltage protocol and the compound effect is directly characterized by the activation of the hERG current. EC50 values are obtained from fitting 4-concentration dose response curves (1.1, 3.3, 10 & 30 uM) in triplicates at 4 different sections of the voltage protocol (steady state current amplitude at +10 mV, at +30 mV, peak tail current amplitude and tail current amplitude at 7 second).
row,Structure (SMILES),% change@TL7 (*@3.3 uM)
1,FC(F)(F)Oc1ccc(NCc2ccc3c(-c4nn[nH]n4)coc3c2)cc1Br [Example 233],202* %

# Same assay, conditions: increase of hERG tail current amplitude at 7 second (TL7); 10 uM; hERG stably expressed in CHO cells
row,Structure (SMILES),% change@TL7@10 uM
1,O=C(O)c1cc2cc(F)c(CNc3ccc(OCC(F)(F)F)c(Cl)c3)cc2o1 [Example 225],138%
2,O=C(O)c1cc2cc(F)c(CNc3ccc(OC(F)(F)F)c(Cl)c3)cc2o1 [Example 226],182%
3,O=C(O)c1cc2cc(F)c(CNc3ccc(OC(F)(F)F)c(Br)c3)cc2o1 [Example 227],188%
4,O=C(O)c1cc2cc(F)c(CNc3ccc(SC(F)(F)F)c(Cl)c3)cc2o1 [Example 228],140%
5,O=C(O)c1cc2cc(F)c(CNc3cc(C(F)(F)F)c(Br)c(C(F)(F)F)c3)cc2o1 [Example 229],424%
6,O=C(O)c1cc2cc(F)c(CNc3ccc(OC(F)F)c(C(F)(F)F)c3)cc2o1 [Example 230],244%
7,O=C(O)c1cc2cc(F)c(CNc3ccc(OCC(F)(F)F)c(C(F)(F)F)c3)cc2o1 [Example 231],239%
8,O=C(O)c1cc2cc(F)c(CNc3cc(Cl)c(Cl)c(Cl)c3)cc2o1 [Example 232],247%
